# From article PMC11123956, “Nobiletin Stimulates Adrenal Hormones and Modulates the Circadian Clock in Mice” (Nutrients, 2024)
# Columns and labels:
# PDE6 = target: T1, PDE6 (Bos taurus, UniProt P11541+P23439); test: PDE enzyme  assay, PDE6; assay type: biochemical, Bovine
# T1 construct: Bovine retinal rod outer segments; tissue Eurofins Panlabs Discovery Services Taiwan, Ltd. (contract assay); host or cells: bovine retinal rod outer segments
# Procedure: (§1) Enzyme assays for various subtypes of PDE (Table 1 and Figure 4) were conducted by Eurofins Panlabs Discovery Services Taiwan, Ltd. (New Taipei City, Taiwan). In the assays, five or six concentrations of nobiletin over five or six orders of magnitude were examined in experiments conducted in duplicate to determine the IC50 (concentration of nobiletin exerting half-maximal inhibition of control-specific activity). IC50 values were determined by nonlinear least squares regression analysis using MathIQTM (ID Business Solutions Ltd., Woking, UK). FAM-cAMP, FAM-cGMP (0.1 μM), and 100 μM [^3H]cGMP + cGMP were used for the substrate in the human recombinant insect Sf9 cells or Bovine retinal rod outer segments depending on the PDE subtype. The spectrofluorometric quantitation of fluorescein-AMP-IMAP, fluorescein-GMP-IMAP, or [^3H] guanosine was used depending on the PDE subtype. A known […] of each PDE was used as the positive control.
# PDE10A2 = target: T2, PDE10A2 (Homo sapiens, UniProt Q9Y233); test: PDE enzyme (kinase) assay, PDE10A2; assay type: biochemical
# T2 construct: purchased Eurofins Panlabs Discovery Services Taiwan, Ltd. (contract assay); host or cells: insect Sf9 cells
# Procedure: as §1
# Figure 4 PDE kinase assays and the acute clock gene expression changes by PDE4 inhibitor or ROR α/γ agonist. (A) Inhibitory effect of nobiletin on PDE4A1, 4B1, and 10A2. Various concentrations of nobiletin (1–100 μM) were used for IC50 determination (Table 1). Values represent the mean of two experiments. Positive controls were rolipram for PDE4A1 and 4B1 and papaverine for PDE10A2. […]
# PDE11A4 = target: T3, PDE11A4 (Homo sapiens, UniProt Q9HCR9); test: PDE enzyme  assay, PDE11A4; assay type: biochemical
# T3 construct: purchased Eurofins Panlabs Discovery Services Taiwan, Ltd. (contract assay); host or cells: insect Sf9 cells
# Procedure: as §1
# serum ACTH = test: Serum ACTH ELISA; assay type: in vivo, mice; settings: an hour after injection (50 or 100 mg/kg)
# Procedure: Serum corticosterone, adrenaline, and adreno-corticotropic hormone (ACTH) levels, and corticotropin releasing factor (CRF) in the hypothalamus, were measured using enzyme-linked immunosorbent assay (ELISA). A corticosterone ELISA kit (Cayman Chemical Company, Ann Arbor, MI, USA), an adrenaline ELISA kit (Abcam, Cambridge, UK), an ACTH ELISA kit (Phoenix Pharmaceuticals Inc., Burlingame, CA, USA), and a CRF ELISA kit (Yanaihara Institute Inc., Shizuoka, Japan) were used. Assays were conducted according to the manufacturer’s instructions. Blood samples were collected from the mice at ZT4, 5, and 7 after the administration of nobiletin at ZT3 (10 mg/kg and 100 mg/kg, in Figure 3A,B). Blood glucose levels were measured using a Glucose PILOT kit (Aventir Biotech, LLC, Carlsbad, CA, USA). The range of blood glucose that could be precisely measured with the kit was 20–600 mg/dL. Before measurement, we administered nobiletin (100 mg/kg body weight) to the mice, after 4 h fasting. Blood was collected from the tail vein of each mouse for measurement. The measurements were conducted at 0, 15, 30, 45, 60, and 90 min after reagent administration in Figure 3C. Samples were collected one hour after nobiletin treatment (50 or 100 mg/kg; Figure 3D,E), or 2 or 4 h after treatment in Figure 3F. […]
# T2 sequence (Q9Y233 267-1055): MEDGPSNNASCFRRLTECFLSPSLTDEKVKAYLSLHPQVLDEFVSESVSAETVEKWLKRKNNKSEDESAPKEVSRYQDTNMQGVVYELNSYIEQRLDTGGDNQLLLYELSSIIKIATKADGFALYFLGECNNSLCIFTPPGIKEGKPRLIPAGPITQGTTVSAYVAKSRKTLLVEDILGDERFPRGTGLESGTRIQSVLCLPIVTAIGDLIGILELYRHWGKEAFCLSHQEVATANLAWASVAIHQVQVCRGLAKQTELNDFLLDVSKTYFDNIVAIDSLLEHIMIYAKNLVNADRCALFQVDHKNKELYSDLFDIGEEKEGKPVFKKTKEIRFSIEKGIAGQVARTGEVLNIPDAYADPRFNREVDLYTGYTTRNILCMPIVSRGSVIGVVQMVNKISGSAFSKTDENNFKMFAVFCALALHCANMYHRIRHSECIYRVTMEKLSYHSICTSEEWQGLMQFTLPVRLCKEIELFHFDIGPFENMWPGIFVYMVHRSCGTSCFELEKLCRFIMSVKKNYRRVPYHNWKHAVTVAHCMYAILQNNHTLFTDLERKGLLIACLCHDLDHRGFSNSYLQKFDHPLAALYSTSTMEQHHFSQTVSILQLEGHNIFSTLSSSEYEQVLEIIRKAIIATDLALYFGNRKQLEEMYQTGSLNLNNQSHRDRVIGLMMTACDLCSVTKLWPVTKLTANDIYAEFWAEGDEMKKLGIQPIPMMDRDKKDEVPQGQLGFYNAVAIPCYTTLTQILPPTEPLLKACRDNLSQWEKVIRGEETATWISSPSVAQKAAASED
# T1 sequence (P11541 2-856 limits assumed): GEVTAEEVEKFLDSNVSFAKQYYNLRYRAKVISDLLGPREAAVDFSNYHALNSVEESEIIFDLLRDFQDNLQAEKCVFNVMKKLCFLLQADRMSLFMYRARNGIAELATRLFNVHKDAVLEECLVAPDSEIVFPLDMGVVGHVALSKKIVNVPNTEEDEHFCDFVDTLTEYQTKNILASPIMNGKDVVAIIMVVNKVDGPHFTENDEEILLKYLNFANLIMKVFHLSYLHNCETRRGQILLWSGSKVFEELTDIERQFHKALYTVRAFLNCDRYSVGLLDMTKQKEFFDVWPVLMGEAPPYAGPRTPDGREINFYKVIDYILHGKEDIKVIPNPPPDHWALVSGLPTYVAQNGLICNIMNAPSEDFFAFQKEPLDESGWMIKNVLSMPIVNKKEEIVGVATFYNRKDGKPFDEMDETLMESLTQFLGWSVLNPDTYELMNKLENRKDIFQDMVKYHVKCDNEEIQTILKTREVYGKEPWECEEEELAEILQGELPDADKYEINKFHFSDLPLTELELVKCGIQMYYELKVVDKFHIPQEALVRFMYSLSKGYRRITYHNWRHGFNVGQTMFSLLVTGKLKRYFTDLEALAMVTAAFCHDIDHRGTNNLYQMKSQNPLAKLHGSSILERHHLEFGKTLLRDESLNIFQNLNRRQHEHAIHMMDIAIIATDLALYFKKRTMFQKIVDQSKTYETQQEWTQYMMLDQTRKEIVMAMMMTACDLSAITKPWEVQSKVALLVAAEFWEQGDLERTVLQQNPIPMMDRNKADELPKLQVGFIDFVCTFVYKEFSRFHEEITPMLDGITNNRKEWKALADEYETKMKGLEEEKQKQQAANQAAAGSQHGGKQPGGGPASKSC
# T1 sequence (P23439 2-850 limits assumed): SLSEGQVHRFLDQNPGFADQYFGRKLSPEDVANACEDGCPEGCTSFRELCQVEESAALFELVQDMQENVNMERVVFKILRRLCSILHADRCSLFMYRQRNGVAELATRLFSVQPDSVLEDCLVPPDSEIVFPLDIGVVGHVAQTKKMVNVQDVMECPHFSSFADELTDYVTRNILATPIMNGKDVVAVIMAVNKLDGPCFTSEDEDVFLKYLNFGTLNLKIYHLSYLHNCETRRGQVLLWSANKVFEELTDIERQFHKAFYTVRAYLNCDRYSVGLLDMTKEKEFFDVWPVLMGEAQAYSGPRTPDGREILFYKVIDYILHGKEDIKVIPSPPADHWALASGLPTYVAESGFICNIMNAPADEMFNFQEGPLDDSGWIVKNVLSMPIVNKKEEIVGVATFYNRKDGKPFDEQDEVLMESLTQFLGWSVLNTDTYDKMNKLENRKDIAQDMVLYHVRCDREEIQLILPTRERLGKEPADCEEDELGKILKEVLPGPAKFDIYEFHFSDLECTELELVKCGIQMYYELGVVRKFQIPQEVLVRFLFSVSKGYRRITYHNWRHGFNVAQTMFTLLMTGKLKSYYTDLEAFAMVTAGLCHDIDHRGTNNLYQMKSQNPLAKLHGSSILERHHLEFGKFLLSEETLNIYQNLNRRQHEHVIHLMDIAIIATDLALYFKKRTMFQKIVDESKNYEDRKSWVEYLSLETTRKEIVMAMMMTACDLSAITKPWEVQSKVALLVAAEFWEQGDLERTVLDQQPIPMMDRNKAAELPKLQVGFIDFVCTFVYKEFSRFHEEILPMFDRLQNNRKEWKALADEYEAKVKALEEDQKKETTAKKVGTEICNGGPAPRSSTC
# T3 sequence (Q9HCR9 whole entry): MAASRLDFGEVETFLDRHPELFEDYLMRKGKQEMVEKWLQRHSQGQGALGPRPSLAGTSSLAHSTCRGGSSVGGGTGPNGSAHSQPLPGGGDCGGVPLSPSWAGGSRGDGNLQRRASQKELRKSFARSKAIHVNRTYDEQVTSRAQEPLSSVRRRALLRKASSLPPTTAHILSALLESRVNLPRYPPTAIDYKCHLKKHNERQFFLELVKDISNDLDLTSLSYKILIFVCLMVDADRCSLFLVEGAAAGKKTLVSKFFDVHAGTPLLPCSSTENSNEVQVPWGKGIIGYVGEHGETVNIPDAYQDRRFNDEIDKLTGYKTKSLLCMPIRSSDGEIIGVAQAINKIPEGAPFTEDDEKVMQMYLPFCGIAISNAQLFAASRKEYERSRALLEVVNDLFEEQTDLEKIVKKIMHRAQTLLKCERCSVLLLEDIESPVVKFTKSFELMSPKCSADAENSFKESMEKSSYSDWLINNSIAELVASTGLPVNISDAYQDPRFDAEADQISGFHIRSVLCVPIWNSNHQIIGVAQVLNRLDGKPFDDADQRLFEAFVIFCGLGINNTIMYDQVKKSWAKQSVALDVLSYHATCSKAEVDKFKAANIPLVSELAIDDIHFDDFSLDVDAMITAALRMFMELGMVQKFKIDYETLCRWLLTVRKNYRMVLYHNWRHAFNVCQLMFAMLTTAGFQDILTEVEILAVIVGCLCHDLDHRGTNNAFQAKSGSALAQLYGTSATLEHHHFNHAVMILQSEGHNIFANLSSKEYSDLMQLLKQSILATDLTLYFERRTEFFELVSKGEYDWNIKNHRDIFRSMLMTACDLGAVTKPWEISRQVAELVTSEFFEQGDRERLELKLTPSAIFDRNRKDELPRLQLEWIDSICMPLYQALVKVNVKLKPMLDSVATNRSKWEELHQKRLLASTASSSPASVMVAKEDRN
structure (smiles),measurement,setting,value
COc1ccc(-c2cc(=O)c3c(OC)c(OC)c(OC)c(OC)c3o2)cc1OC [nobiletin],IC50,PDE6,74.5 µM
same,IC50,"PDE10A2; IC50, PDE10A2, bound stated in the discussion",≤ 6.03 µM
same,IC50,"PDE10A2; IC50 Dose, PDE10A2, duplicate",1.51 µM
same,IC50,PDE11A4,31 µM
same,serum ACTH,serum ACTH,did not change significantly
